We go through 25 molecules from patent publication US20230002334A1, “TRPM8 MODULATORS” (Givaudan SA, priority 2019, published 2023).

The term EC50 denotes the concentration giving half of the maximal effect.

The target of this assay is T1, hTRPM8 (Homo sapiens, UniProt Q7Z2W7).
T1 construct: expressed in transfected cells
T1 sequence (Q7Z2W7 whole entry): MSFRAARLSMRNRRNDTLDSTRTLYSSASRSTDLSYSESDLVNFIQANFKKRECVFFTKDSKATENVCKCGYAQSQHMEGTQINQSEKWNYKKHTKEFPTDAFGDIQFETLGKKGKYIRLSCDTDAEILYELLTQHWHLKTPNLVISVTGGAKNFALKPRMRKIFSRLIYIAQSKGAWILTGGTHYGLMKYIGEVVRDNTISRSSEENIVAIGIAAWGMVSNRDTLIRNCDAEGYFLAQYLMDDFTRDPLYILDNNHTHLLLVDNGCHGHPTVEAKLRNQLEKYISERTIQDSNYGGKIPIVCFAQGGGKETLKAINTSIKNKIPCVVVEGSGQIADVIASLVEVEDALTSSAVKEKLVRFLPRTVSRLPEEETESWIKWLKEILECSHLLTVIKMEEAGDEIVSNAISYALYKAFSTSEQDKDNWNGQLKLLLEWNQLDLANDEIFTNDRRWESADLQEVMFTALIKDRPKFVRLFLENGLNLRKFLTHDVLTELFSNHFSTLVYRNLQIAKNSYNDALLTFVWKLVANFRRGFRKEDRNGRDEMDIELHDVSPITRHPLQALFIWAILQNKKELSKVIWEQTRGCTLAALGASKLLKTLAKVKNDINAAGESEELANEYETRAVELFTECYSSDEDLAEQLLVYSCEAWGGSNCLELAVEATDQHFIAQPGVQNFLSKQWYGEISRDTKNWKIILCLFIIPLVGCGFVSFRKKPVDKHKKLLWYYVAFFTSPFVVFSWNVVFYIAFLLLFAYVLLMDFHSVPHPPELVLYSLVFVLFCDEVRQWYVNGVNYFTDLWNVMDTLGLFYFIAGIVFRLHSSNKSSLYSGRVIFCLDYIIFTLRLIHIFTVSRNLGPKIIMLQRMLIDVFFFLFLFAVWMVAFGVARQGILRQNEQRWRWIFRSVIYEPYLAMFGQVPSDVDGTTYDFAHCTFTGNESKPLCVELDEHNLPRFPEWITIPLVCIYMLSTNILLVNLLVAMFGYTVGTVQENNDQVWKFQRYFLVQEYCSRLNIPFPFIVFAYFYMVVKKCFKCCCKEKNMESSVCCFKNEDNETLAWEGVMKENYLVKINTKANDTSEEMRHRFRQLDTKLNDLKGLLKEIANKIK
The assay is described as follows: Assay on TRPM8 modulators: calcium imaging (Fluo-4, Flexstation) in HEK293 cell line stably expressing hTRPM8. The format is cell-based. The following applies: HEK293 cells stably expressing hTRPM8, calcium influx, sigmoidal dose-response fit; read-out: EC50. An outline of the steps: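 Calcium influx monitored by Fluo-4 (2.7 μM with […] probenecid, 1 h 37 °C loading) in HEK293 cells stably expressing hTRPM8, in HEPES buffer pH 7.4 with 2 mM CaCl2. Fluorescence read 15 s before and 105 s after adding serial compound dilutions. Maximal activation relative to solvent and 31.6 μM menthol; EC50 from sigmoidal fit.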
For the molecule `COc1ccc([C@]2(C)C[C@@H](C)[C@@H]3[C@@H](C2)C(C)(C)ON3C)cc1` (racemic) [Compound 36, rac-(3aR,5R,7R,7aR)-5-(4-methoxyphenyl)-1,3,3,5,7-pentamethyloctahydrobenzo[c]isoxazole], the half-maximal effective concentration (EC50) is 1000 to 35000 nM.
The figure for `CC(C)=CC[C@H]1C[C@@H]2[C@@H]([C@@H](C)C1)N(C(C)C)OC2(C)C` (racemic) [Compound 62, rac-(3aR,5R,7S,7aR)-1-isopropyl-3,3,7-trimethyl-5-(3-methylbut-2-en-1-yl)octahydrobenzo[c]isoxazole] is 300 to 1000 nM; for `Cc1c(Cl)cccc1[C@]1(C)C[C@@H](C)[C@@H]2[C@@H](C1)C(C)(C)ON2C` (racemic) [Compound 34, rac-(3aR,5R,7R,7aR)-5-(3-chloro-2-methylphenyl)-1,3,3,5,7-pentamethyloctahydrobenzo[c]isoxazole] it is 300 to 1000 nM.
With `Cc1cccc(C)c1[C@@]1(C)C[C@@H]2[C@@H]([C@@H](C)C1)N(C)OC2(C)C` (racemic) [Compound 76, rac-(3aR,5R,7S,7aR)-5-(2,6-dimethylphenyl)-1,3,3,5,7-pentamethyloctahydrobenzo[c]isoxazole], the EC50 was 300 to 1000 nM.
Next, `Cc1ccc(C#N)cc1[C@@]1(C)C[C@@H]2[C@@H]([C@@H](C)C1)N(C(C)C)OC2(C)C` (racemic) [Compound 126, rac-3-((3aR,5R,7S,7aR)-1-isopropyl-3,3,5,7-tetramethyloctahydrobenzo[c]isoxazol-5-yl)-4-methylbenzonitrile]: 50 to 300 nM.
On to `CCN1OC(C)(C)[C@@H]2C[C@](C)(CC=C(C)C)C[C@H](C)[C@H]21` (racemic) [Compound 53, rac-(3aR,5R,7S,7aR)-1-ethyl-3,3,5,7-tetramethyl-5-(3-methylbut-2-en-1-yl)octahydrobenzo[c]isoxazole], for which the concentration giving a half-maximal response (EC50) is 50 to 300 nM.
Next, `COC(=O)c1ccc(C)c([C@@]2(C)C[C@@H]3[C@@H]([C@@H](C)C2)N(C)OC3(C)C)c1` (racemic) [Compound 137, rac-methyl 4-methyl-3-((3aR,5R,7S,7aR)-1,3,3,5,7-pentamethyloctahydrobenzo[c]isoxazol-5-yl)benzoate]: 50 to 300 nM; `Cc1cccc([C@@]2(C)C[C@@H]3[C@@H]([C@@H](C)C2)N(C)OC3(C)C)c1C` (racemic) [Compound 69, rac-(3aR,5R,7S,7aR)-5-(2,3-dimethylphenyl)-1,3,3,5,7-pentamethyloctahydrobenzo[c]isoxazole]: 50 to 300 nM; `C[C@H]1C[C@@](C)(c2cc(Cl)cc(C#N)c2)C[C@@H]2[C@@H]1N(C)OC2(C)C` (racemic) [Compound 129, rac-3-chloro-5-((3aR,5R,7S,7aR)-1,3,3,5,7-pentamethyloctahydrobenzo[c]isoxazol-5-yl)benzonitrile]: below 50 nM.
As to `COc1ccc([C@@]2(C)C[C@@H]3[C@@H]([C@@H](C)C2)N(C(C)C)OC3(C)C)cc1` (racemic) [Compound 67, rac-(3aR,5R,7S,7aR)-1-isopropyl-5-(4-methoxyphenyl)-3,3,5,7-tetramethyloctahydrobenzo[c]isoxazole], the EC50 is 1000 to 35000 nM.
Next, `CCC[C@@H]1CC[C@@H]2[C@@H](C1)C(C)(C)ON2C` (racemic) [Compound 24, rac-(3aR,5R,7aR)-1,3,3-trimethyl-5-propyloctahydrobenzo[c]isoxazole]: 300 to 1000 nM; `CC(C)CCC1CC(C)C2C(C1)C(C)(C)OCN2C` (stereo not shown) [Compound 22, 6-isopentyl-1,4,4,8-tetramethyloctahydro-2H-benzo[d][1,3]oxazine]: 1000 to 35000 nM; `Cc1cc(C)cc([C@@]2(C)C[C@@H]3[C@@H]([C@@H](C)C2)N(C(C)C)OC3(C)C)c1` (racemic) [Compound 88, rac-(3aR,5R,7S,7aR)-5-(3,5-dimethylphenyl)-1-isopropyl-3,3,5,7-tetramethyloctahydrobenzo[c]isoxazole]: 300 to 1000 nM.
For the molecule `Cc1ccc(C#N)cc1[C@@]1(C)C[C@@H]2[C@@H]([C@@H](C)C1)N(C)OC2(C)C` (stereo in doubt) [Compound 138, rel-4-methyl-3-((3aR,5R,7S,7aR)-1,3,3,5,7-pentamethyloctahydrobenzo[c]isoxazol-5-yl)benzonitrile], the half-maximal effective concentration (EC50) was below 50 nM.
Next, `CCCCC[C@@H]1CC[C@@H]2[C@@H](C1)C(C)(C)ON2C` (racemic) [Compound 23, rac-(3aR,5R,7aR)-1,3,3-trimethyl-5-pentyloctahydrobenzo[c]isoxazole]: 300 to 1000 nM.
The figure for `CCN1OC(C)(C)[C@@H]2C[C@](C)(c3ccccc3)C[C@H](C)[C@H]21` (racemic) [Compound 55, rac-(3aR,5R,7S,7aR)-1-ethyl-3,3,5,7-tetramethyl-5-phenyloctahydrobenzo[c]isoxazole] is 50 to 300 nM.
The figure for `CCc1ccccc1[C@H]1C[C@@H]2[C@@H]([C@@H](C)C1)N(C)OC2(C)C` (racemic) [Compound 79, rac-(3aR,5R,7S,7aR)-5-(2-ethylphenyl)-1,3,3,7-tetramethyloctahydrobenzo[c]isoxazole] is 1000 to 35000 nM; for `Cc1ccc(C#N)c([C@@]2(C)C[C@@H]3[C@@H]([C@@H](C)C2)N(C)OC3(C)C)c1` (racemic) [Compound 134, rac-4-methyl-2-((3aR,5R,7S,7aR)-1,3,3,5,7-pentamethyloctahydrobenzo[c]isoxazol-5-yl)benzonitrile] it is 50 to 300 nM.
Take `CCC1CC(CC)[C@@H]2[C@@H](C1)C(C)(C)ON2CC` (mixture of isomers) [Compound 116, rac-(3aR,7aR)-1,5,7-triethyl-3,3-dimethyloctahydrobenzo[c]isoxazole]: the EC50 lay in the range of 1000 to 35000 nM.
Next, `Cc1ccc(Cl)cc1[C@@]1(C)C[C@@H]2[C@@H]([C@@H](C)C1)N(C)OC2(C)C` (racemic) [Compound 105, rac-(3aR,5R,7S,7aR)-5-(5-chloro-2-methylphenyl)-1,3,3,5,7-pentamethyloctahydrobenzo[c]isoxazole]: below 50 nM; `CN1OC(C)(C)[C@@H]2CCC(c3ccccc3)C[C@H]21` (mixture of isomers) [Compound 115, rac-(3aR,7aR)-1,3,3-trimethyl-6-phenyloctahydrobenzo[c]isoxazole]: 1000 to 35000 nM; `CCCC[C@@H]1CC[C@@H]2[C@@H](C1)C(C)(C)ON2C` (racemic) [Compound 27, rac-(3aR,5R,7aR)-5-butyl-1,3,3-trimethyloctahydrobenzo[c]isoxazole]: 300 to 1000 nM.
Next, `Cc1cc(C)cc([C@@]2(C)C[C@@H]3[C@@H]([C@@H](C)C2)N(C)OC3(C)C)c1` (racemic) [Compound 87, rac-(3aR,5R,7S,7aR)-5-(3,5-dimethylphenyl)-1,3,3,5,7-pentamethyloctahydrobenzo[c]isoxazole]: 300 to 1000 nM.
Next, `Cc1cc(F)ccc1[C@H]1C[C@@H]2[C@@H]([C@@H](C)C1)N(C)OC2(C)C` (racemic) [Compound 101, rac-(3aR,5R,7S,7aR)-5-(4-fluoro-2-methylphenyl)-1,3,3,7-tetramethyloctahydrobenzo[c]isoxazole]: 50 to 300 nM; `C[C@H]1C[C@@](C)(c2cccc(F)c2)C[C@@H]2[C@@H]1N(C)OC2(C)C` (racemic) [Compound 92, rac-(3aR,5R,7S,7aR)-5-(3-fluorophenyl)-1,3,3,5,7-pentamethyloctahydrobenzo[c]isoxazole]: 50 to 300 nM.
